Results published in patent publication US8372848B2, “Melanin-concentrating hormone receptor antagonists and methods of use” (Mixture Sciences, Inc., priority 2004, dated 2013).
“Also recorded” adds a separate entry of the source.

Experiments:
MCH1R = target: T1, MCH1R (Rattus norvegicus, UniProt P97639); assay: Library screening: inhibition of 30 nM MCH-induced Ca2+ mobilization in CHO cells expressing MCH1R; type: cell-based; conditions: five concentrations, ten-fold dilutions starting at 10 µM
T1 construct: expressed in transfected cells; host or cells: CHO
Protocol: A total of thirteen heterocyclic or peptidomimetics PS-SCLs containing 8,136,870 individual compounds were tested (Table 1). Most libraries were generated in a PS format by using 40˜50 amino acids at each of the R1 and R2 positions, and 40˜80 carboxylic acids at the R3 position. A sample set of PS-SCLs was screened initially, sub-libraries with defined R3 positions and a mixture of building blocks at each of the other two positions were prepared (all compounds in the library are represented). Each sub-library was composed of 40˜80 mixtures containing 1,500˜3,200 individual compounds. […]
Each mixture was assayed in duplicate in three separate assays at three concentrations (1, 0.1 and 0.01 µg/ml) (FIG. 1B). MCH1R inhibition was calculated as the percent decrease in intracellular Ca^2+ mobilization in MCH1R expressing CHO cells induced by 30 nM MCH in the presence or absence of the mixture. […]
Transfected […] cells seeded on black-walled 96-well plates (Sigma, St Louis USA) were loaded for 1 h at 37° C. with Ca^2+-sensitive fluorescent dye, fluo-4 (Molecular Device, CA) in Hanks' balanced salt solution containing 20 mM HEPES (pH 7.4). The level of [Ca^2+]i was then monitored using a FLIPR system (Fluorometric Imaging Plate Reader; Molecular Devices, San Francisco, Calif.). […] Data were expressed as fluorescence (arbitrary units) versus time.

rats = assay: Spontaneous activity (ambulatory and non-ambulatory movements) after icv administration, Example IV; type: in vivo, rat
Protocol: To determine the effect of TPI 1361-17 on spontaneous activity on rats, intraventricular cannulated rats were acclimatized to the testing situation. […] Ambulatory movements and non-ambulatory movements were monitored for 60 minutes upon administration of five nmol TPI 1361-17 or ACSF (FIGS. 4A, 4B).
For these experiments, ambulatory movements were recorded using a Hamilton-Kinder Activity Monitor (with the infrared beams in a 4×8 configured frame). Locomotion was quantified in transparent polycarbonate cages (32×26×20 cm) placed within the activity frames. Animal position was detected by two dimensional beam breaks. The ambulation was tabulated as a movement that results in the change of location. All other beam breaks are categorized as non-ambulatory, fine movement. Animals were acclimatized to the novel home cage-environment for 60 minutes before injection, then were removed, injected and immediately replaced in the same cage, and monitoring began. Locomotion was measured for 60 minutes after the ICV administration of either ACSF or 5 nmol TPI 1361-17.
For animal studies, adult male Sprague-Dawley rats weighing 200-300g were obtained from Charles River Laboratories (Wilmington, Mass.), bearing a 23-gauge stainless steel cannula placed into the right lateral ventricle. […]

[1] = target: T2, prolactin releasing peptide (PrRP) receptor (Homo sapiens, UniProt P49683); assay: Selectivity versus PrRP receptor; type: cell-based
T2 sequence (P49683 1-370): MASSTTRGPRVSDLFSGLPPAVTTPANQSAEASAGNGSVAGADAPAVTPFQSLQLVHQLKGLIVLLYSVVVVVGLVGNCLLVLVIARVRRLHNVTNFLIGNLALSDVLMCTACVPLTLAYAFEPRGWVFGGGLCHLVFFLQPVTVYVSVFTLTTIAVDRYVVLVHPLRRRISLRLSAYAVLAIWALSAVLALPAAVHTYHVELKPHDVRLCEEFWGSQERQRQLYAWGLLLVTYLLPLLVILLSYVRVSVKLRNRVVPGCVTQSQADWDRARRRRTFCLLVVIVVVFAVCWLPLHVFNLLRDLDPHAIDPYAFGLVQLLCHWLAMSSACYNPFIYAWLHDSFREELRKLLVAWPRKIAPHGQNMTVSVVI

T1 sequence (P97639 whole entry): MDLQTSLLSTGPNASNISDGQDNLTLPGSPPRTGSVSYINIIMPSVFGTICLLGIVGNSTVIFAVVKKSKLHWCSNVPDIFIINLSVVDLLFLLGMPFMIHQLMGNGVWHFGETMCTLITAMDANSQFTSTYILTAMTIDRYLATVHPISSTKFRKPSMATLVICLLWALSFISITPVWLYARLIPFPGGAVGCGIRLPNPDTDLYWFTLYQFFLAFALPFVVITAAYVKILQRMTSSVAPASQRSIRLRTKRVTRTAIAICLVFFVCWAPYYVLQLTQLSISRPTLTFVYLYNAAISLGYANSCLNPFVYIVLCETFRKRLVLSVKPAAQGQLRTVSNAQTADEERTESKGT

Compound: C[C@@H](CNCc1ccccc1)N1C[C@H](CCCNC(=N)N)N(CCc2cccc(F)c2)C1=S [TPI 1361-17, N-(3-{(4S)-1-[(1S)-2-(benzylamino)-1-methylethyl]-3-[2-(3-fluorophenyl)ethyl]-2-thioxoimidazolidin-4-yl}propyl)guanidine]
- IC50 inhibiting 30 nM MCH-induced Ca2+ mobilization, 84 individual compounds (MCH1R): highest affinity
- Total amounts of non-ambulatory or ambulatory movements versus ACSF (rats; 5 nmol icv, 60 minutes): no significant differences
- Detectable changes in movement (rats; five or one nmol icv): did not exhibit any detectable changes in movement; also recorded: did not affect locomotion or fine movements
- Selectivity for MCH1R compared with PrRP receptor [1]: more than 1,000 fold
